Data reported in the supplement of paper PMC11451515.

Tested on: SEM cells
Assay: cell viability relative to DMSO control; higher = less cytotoxic
Settings: 48 h
Outline: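 Three leukemia lines were tested: NOMO1 and SEM at 500 cells/well and P12-Ichikawa at 1000 cells/well. Each was adapted for at least four passages in each medium and seeded in 5 μl in 1536-well plates, and library compounds in DMSO were pin-dosed from 47 μM to 0.79 nM in 11 threefold steps. After 48 h at 37°C, CellTiter-Glo One luminescence was read. Viability is a percentage relative to DMSO wells on each plate, with cell-free wells as background.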

[1] = HPLM + 10% dialyzed FBS, 0.000781 µM
[2] = HPLM + 10% dialyzed FBS, 0.00234 µM
[3] = HPLM + 10% dialyzed FBS, 0.00702 µM
[4] = HPLM + 10% dialyzed FBS, 0.0211 µM
[5] = HPLM + 10% dialyzed FBS, 0.0632 µM
[6] = HPLM + 10% dialyzed FBS, 0.19 µM
[7] = HPLM + 10% dialyzed FBS, 0.569 µM
[8] = HPLM + 10% dialyzed FBS, 1.71 µM
[9] = HPLM + 10% dialyzed FBS, 5.12 µM
[10] = HPLM + 10% dialyzed FBS, 15.4 µM
[11] = HPLM + 10% dialyzed FBS, 46.1 µM
[12] = RPMI 5 mM glucose + 10% FBS, 0.000781 µM
[13] = RPMI 5 mM glucose + 10% FBS, 0.00234 µM
[14] = RPMI 5 mM glucose + 10% FBS, 0.00702 µM
[15] = RPMI 5 mM glucose + 10% FBS, 0.0211 µM
[16] = RPMI 5 mM glucose + 10% FBS, 0.0632 µM
[17] = RPMI 5 mM glucose + 10% FBS, 0.19 µM
[18] = RPMI 5 mM glucose + 10% FBS, 0.569 µM
[19] = RPMI 5 mM glucose + 10% FBS, 1.71 µM
[20] = RPMI 5 mM glucose + 10% FBS, 5.12 µM
[21] = RPMI 5 mM glucose + 10% FBS, 15.4 µM
[22] = RPMI 5 mM glucose + 10% FBS, 46.1 µM
[23] = RPMI 5 mM glucose + 10% dialyzed FBS, 0.000781 µM
[24] = RPMI 5 mM glucose + 10% dialyzed FBS, 0.00234 µM
[25] = RPMI 5 mM glucose + 10% dialyzed FBS, 0.00702 µM
[26] = RPMI 5 mM glucose + 10% dialyzed FBS, 0.0211 µM
[27] = RPMI 5 mM glucose + 10% dialyzed FBS, 0.0632 µM
[28] = RPMI 5 mM glucose + 10% dialyzed FBS, 0.19 µM
[29] = RPMI 5 mM glucose + 10% dialyzed FBS, 0.569 µM
[30] = RPMI 5 mM glucose + 10% dialyzed FBS, 1.71 µM
[31] = RPMI 5 mM glucose + 10% dialyzed FBS, 5.12 µM
[32] = RPMI 5 mM glucose + 10% dialyzed FBS, 15.4 µM
[33] = RPMI 5 mM glucose + 10% dialyzed FBS, 46.1 µM

Structure (SMILES)	cell viability [1]	cell viability [2]	cell viability [3]	cell viability [4]	cell viability [5]	cell viability [6]	cell viability [7]	cell viability [8]	cell viability [9]	cell viability [10]	cell viability [11]	cell viability [12]	cell viability [13]	cell viability [14]	cell viability [15]	cell viability [16]	cell viability [17]	cell viability [18]	cell viability [19]	cell viability [20]	cell viability [21]	cell viability [22]	cell viability [23]	cell viability [24]	cell viability [25]	cell viability [26]	cell viability [27]	cell viability [28]	cell viability [29]	cell viability [30]	cell viability [31]	cell viability [32]	cell viability [33]
CC(C[N+](C)(C)C)OC(N)=O (stereo unspecified)	107%	114%	83.5%	98.8%	96.1%	106%	104%	116%	106%	110%	97.6%	105%	105%	87%	128%	117%	132%	120%	124%	113%	120%	109%	116%	123%	88.7%	114%	120%	107%	125%	108%	112%	116%	108%
CCCCCCCCOc1ccccc1C(=O)Nc1ccc(C(=O)OCC[N+](C)(CC)CC)cc1	105%	115%	101%	105%	102%	112%	108%	96.6%	73.9%	91.2%	57.2%	98.2%	93%	84.5%	102%	96.9%	102%	97%	85.6%	49.5%	93.5%	33.4%	97%	109%	90.4%	99.9%	107%	121%	104%	95.3%	75.5%	118%	30.7%
Cc1cccc(N(C)C(=S)Oc2ccc3ccccc3c2)c1	79.4%	91.8%	83.8%	98.8%	90.7%	104%	96.8%	84.7%	106%	96.5%	87.2%	79.7%	102%	96.1%	90.8%	108%	86.7%	110%	109%	107%	99.4%	85%	95.6%	114%	102%	108%	108%	96.7%	129%	117%	115%	101%	89%
CCOc1cc(/C=C2/C(=O)N(c3ccccc3)N=C2C)cc(Cl)c1OCC(=O)OC	69.2%	85.9%	84%	82.7%	81%	90%	85.9%	89.5%	75.7%	83.6%	48.4%	86.2%	95.7%	85.2%	91.1%	82%	107%	95.6%	95.8%	90.9%	71.9%	58.6%	80%	74.3%	95%	90%	64.4%	90.6%	81.5%	86.3%	85.8%	65.9%	59%
C/C(=C\c1csc(C)n1)[C@@H]1C[C@@H]2O[C@]2(C)CCC[C@H](C)[C@H](O)[C@@H](C)C(=O)C(C)(C)[C@@H](O)CC(=O)O1	20.1%	19.1%	23%	36.1%	21%	22%	19.7%	19.5%	18.2%	20.3%	19.9%	11.4%	15.3%	17.3%	19.1%	16.8%	17.3%	15.8%	14.1%	13.1%	14.9%	16.9%	20.7%	18.4%	14%	50.3%	20.6%	16.9%	14.3%	16.2%	16.6%	16.3%	15.6%
FC1=CC=C(CN2\C=C/C=C(/C(=O)N[C@@H](COC3=CC4=C(NC(=O)N4)C=C3)C5=CC=CC=C5)C2=O)C=C1F	79.5%	85.6%	69.3%	94.2%	93.8%	98.8%	93.3%	77.5%	61%	54.6%	41.8%	93.6%	108%	85.9%	119%	109%	108%	93.8%	90%	57.1%	59.4%	38.5%	79.8%	91.2%	78.5%	93.4%	84.5%	93.1%	81%	76.9%	57.4%	49.8%	44.3%
C[N+](C)(C)CC(=O)O.[Cl-]	56.8%	83.2%	80.5%	73.7%	79.7%	85.5%	88.3%	26.3%	93.1%	93.4%	89.1%	76.8%	80.8%	73%	77.4%	81.8%	89.2%	96%	16.6%	86.8%	90.2%	93.4%	81.5%	95%	90.9%	87.8%	81.7%	89%	100%	21%	91.8%	88.8%	74.2%
